The test system of assay [1] is T1, General amino-acid permease GAP1 (Saccharomyces cerevisiae), P19145 [I384C].
T1 sequence (whole entry): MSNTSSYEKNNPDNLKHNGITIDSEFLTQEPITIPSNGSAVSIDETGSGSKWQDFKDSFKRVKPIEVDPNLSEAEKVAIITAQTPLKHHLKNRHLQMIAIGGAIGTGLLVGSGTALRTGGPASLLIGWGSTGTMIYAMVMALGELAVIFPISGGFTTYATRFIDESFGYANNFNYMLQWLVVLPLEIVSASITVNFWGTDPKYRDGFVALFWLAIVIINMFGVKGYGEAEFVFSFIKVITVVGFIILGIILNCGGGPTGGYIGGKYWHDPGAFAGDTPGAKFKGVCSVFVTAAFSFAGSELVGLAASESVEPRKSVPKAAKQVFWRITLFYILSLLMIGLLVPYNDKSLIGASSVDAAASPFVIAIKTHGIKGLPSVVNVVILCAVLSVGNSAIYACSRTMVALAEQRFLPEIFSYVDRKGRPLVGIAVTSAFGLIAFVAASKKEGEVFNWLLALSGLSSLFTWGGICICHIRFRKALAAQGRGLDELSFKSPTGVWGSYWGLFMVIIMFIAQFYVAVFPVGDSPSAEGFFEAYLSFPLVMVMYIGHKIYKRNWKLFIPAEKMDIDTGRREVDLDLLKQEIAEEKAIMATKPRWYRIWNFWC
Kind of assay: Activation of yeast Gap1 I384C mutant-mediated amino acid uptake at 10 mM.

Assay [2] has as its system T2, General amino-acid permease GAP1 (Saccharomyces cerevisiae), P19145 [V381C].
T2 sequence (whole entry): T1 sequence (whole entry) with V381C, C384I
Kind of assay: Induction of yeast Gap1 V381C mutant-mediated trehalose activation at 2 mM in presence of 10 mM MTSEA treated before compound addition.

The subject of assay [3] is T3, General amino-acid permease GAP1 (Saccharomyces cerevisiae), P19145 [R399C].
T3 sequence (whole entry): T1 sequence (whole entry) with C384I, R399C
Kind of assay: Activation of yeast Gap1 R399C mutant-mediated amino acid uptake at 10 mM.

In assay [4] the test system is General amino-acid permease GAP1 (Saccharomyces cerevisiae), P19145 [Y395C]. The assay can be described thus: Inhibition of yeast Gap1 Y395C mutant-mediated amino acid uptake at 10 mM.
For assay [5], the system named is T4, General amino-acid permease GAP1 (Saccharomyces cerevisiae), P19145 [A403C].
T4 sequence (whole entry): T1 sequence (whole entry) with C384I, A403C
Kind of assay: Induction of yeast Gap1 A403C mutant-mediated […] activation at 2 mM in presence of 10 mM MTSEA treated before compound addition.

Assay [6] relates to T1, General amino-acid permease GAP1 (Saccharomyces cerevisiae), P19145 [I384C]. Kind of assay: Induction of yeast Gap1 I384C mutant-mediated trehalose activation at 10 mM.

Substitutions are numbered along the chain they refer to. Activity calls are given as the source filed them. No cut-off for these calls is given here.

General amino-acid permease GAP1 (Saccharomyces cerevisiae), P19145 [Y395C], sequence (P19145 whole entry Y395C): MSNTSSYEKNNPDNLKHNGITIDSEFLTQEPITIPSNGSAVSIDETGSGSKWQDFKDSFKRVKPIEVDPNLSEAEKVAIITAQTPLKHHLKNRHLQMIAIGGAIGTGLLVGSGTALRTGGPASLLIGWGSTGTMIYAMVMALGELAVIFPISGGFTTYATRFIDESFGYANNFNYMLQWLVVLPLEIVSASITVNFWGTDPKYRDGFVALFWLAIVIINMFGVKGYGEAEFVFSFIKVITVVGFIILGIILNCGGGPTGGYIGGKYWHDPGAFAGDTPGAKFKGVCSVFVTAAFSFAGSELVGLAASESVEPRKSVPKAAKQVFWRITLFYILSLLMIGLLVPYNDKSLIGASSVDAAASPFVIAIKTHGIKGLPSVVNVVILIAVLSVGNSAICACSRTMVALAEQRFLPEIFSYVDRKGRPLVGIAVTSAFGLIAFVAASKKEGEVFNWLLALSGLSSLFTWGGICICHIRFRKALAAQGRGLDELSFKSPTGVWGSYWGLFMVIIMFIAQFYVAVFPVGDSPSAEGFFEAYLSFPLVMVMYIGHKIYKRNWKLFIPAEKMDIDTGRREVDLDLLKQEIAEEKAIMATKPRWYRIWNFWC

As to `NC(=O)NCCC[C@H](N)C(=O)O`, the result in assay [1], in assay [3] and in assay [6] was inactive. Moreover, the inhibition entry in assay [2], in assay [4] and in assay [5] was “Active” in each case.

For the origin of these results see ChEMBL document CHEMBL1221220, “Transport and signaling via the amino acid binding site of the yeast Gap1 amino acid transceptor” (Nat Chem Biol, 2009).
